Activity calls are given as the source filed them. No cut-off for these calls is given here.
Tests used:
Rattus norvegicus [1] = experiment: Antidiabetic activity against STZ-induced diabetic Sprague-Dawley rat model assessed as reduction in fasting blood glucose level at 80 mg/kg, IG administered once daily for 28 days; format: functional; design: scale not given: the % may be the effect or the level left; conditions: time 28 day
Rattus norvegicus [2] = experiment: (§1) Antidiabetic activity against 12 hrs fasted STZ-induced diabetic Sprague-Dawley rat model assessed as reduction in AUC of blood glucose at 80 mg/kg, IG administered once daily for 28 days followed by maltose addition after 30 mins post cpd treatment and measured after 30 mins post maltose treatment; format: functional; design: scale not given: the % may be the effect or the level left
[3] = Inhibition of Saccharomyces cerevisiae Alpha-glucosidase using p-nitrophenyl glucopyranoside as substrate preincubated for 5 mins followed by substrate addition and measured for 30 mins
[4] = Inhibition of Wistar rat kidney ALR1 using sodium D-glucuronate as substrate preincubated for 10 mins in presence of NADPH followed by substrate addition and measured after 4 mins; format: tissue-based
[5] = Antioxidant activity assessed as DPPH radical scavenging activity at 50 uM incubated for 30 mins by DPPH assay relative to control; format: functional
[6] = Octanol/buffer distribution coefficient, log D of compound at pH 7.4 incubated for 24 hrs by shake flask based HPLC method; format: physicochemical
Brain [7] = experiment: Antioxidant activity in rat brain homogenate assessed as inhibition of lipid peroxidation by measuring MDA concentration at 100 uM by TBARS assay relative to control; format: functional, tissue-based; design: scale not given: the % may be the effect or the level left
[8] = Antioxidant activity assessed as DPPH radical scavenging activity at 100 uM incubated for 30 mins by DPPH assay relative to control; format: functional
Brain [9] = experiment: Antioxidant activity in rat brain homogenate assessed as inhibition of lipid peroxidation by measuring MDA concentration at 50 uM by TBARS assay relative to control; format: functional, tissue-based; design: scale not given: the % may be the effect or the level left
[10] = Antioxidant activity assessed as DPPH radical scavenging activity at 10 uM incubated for 30 mins by DPPH assay relative to control; format: functional
Rattus norvegicus [11] = species: Rattus norvegicus; experiment: Selectivity index, ratio of IC50 for Wistar rat kidney ALR1 to IC50 for Wistar rat lens ALR2
[12] = Inhibition of Wistar rat lens ALR2 using D,L-glyceraldehyde as substrate preincubated for 10 mins in presence of NADPH followed by substrate addition and measured after 4 mins; format: tissue-based
Rattus norvegicus [13] = experiment: Antidiabetic activity against STZ-induced diabetic Sprague-Dawley rat model assessed as reduction in fasting blood glucose level at 100 mg/kg, IG administered once daily for 28 days; format: functional; design: scale not given: the % may be the effect or the level left; conditions: time 28 day
Rattus norvegicus [14] = experiment: Antidiabetic activity against STZ-induced diabetic Sprague-Dawley rat model assessed as reduction in triglycerides level in liver at 160 mg/kg, IG administered once daily for 28 days relative to control; format: functional; design: scale not given: the % may be the effect or the level left; conditions: time 28 day
HEK-293T = experiment: Cytotoxicity against HEK293T cells at 15 to 200 micromol/L by MTT assay; format: toxicity, cell-based; conditions: human, dose 15-200 µmol/L
[15] = Antioxidant activity assessed as DPPH radical scavenging activity at 1 uM incubated for 30 mins by DPPH assay relative to control; format: functional
Rattus norvegicus [16] = experiment: Antidiabetic activity against STZ-induced diabetic Sprague-Dawley rat model assessed as increase in liver glycogen levels at 160 mg/kg, IG administered once daily for 28 days; format: functional; conditions: time 28 day
Brain [17] = experiment: Antioxidant activity in rat brain homogenate assessed as inhibition of lipid peroxidation by measuring MDA concentration at 10 uM relative to control; format: functional, tissue-based; design: scale not given: the % may be the effect or the level left
[18] = Antioxidant activity assessed as DPPH radical scavenging activity at 5 uM incubated for 30 mins by DPPH assay relative to control; format: functional
[19] = In vivo inhibition of ALR2 in STZ-induced diabetic Sprague-Dawley rat model assessed as reduction in ALR2 activity in lens at 160 mg/kg, IG administered once daily for 28 days relative to control; format: functional; design: scale not given: the % may be the effect or the level left; conditions: time 28 day
Brain [20] = experiment: Antioxidant activity in rat brain homogenate assessed as inhibition of lipid peroxidation by measuring MDA concentration at 1 uM by TBARS assay relative to control; format: functional, tissue-based; design: scale not given: the % may be the effect or the level left
Rattus norvegicus [21] = experiment: Antidiabetic activity against 12 hrs fasted STZ-induced diabetic Sprague-Dawley rat model assessed as reduction in blood glucose level at 160 mg/kg, IG administered once daily for 28 days followed by glucose addition after 30 mins post cpd treatment and measured after 30 mins post glucose treatment by oral glucose tolerance test; format: functional, organism-based; conditions: time 673.0 hrs
Brain [22] = experiment: Antioxidant activity in rat brain homogenate assessed as inhibition of lipid peroxidation by measuring MDA concentration at 5 uM by TBARS assay relative to control; format: functional, tissue-based; design: scale not given: the % may be the effect or the level left
Rattus norvegicus [23] = experiment: Antidiabetic activity against STZ-induced diabetic Sprague-Dawley rat model assessed as reduction in total cholesterol level in serum at 160 mg/kg, IG administered once daily for 28 days relative to control; format: functional; design: scale not given: the % may be the effect or the level left; conditions: time 28 day
Rattus norvegicus [24] = experiment: Antidiabetic activity against STZ-induced diabetic Sprague-Dawley rat model assessed as reduction in fasting blood glucose level at 160 mg/kg, IG administered once daily for 28 days; format: functional; design: scale not given: the % may be the effect or the level left; conditions: time 28 day
Rattus norvegicus [25] = experiment: Antidiabetic activity against STZ-induced diabetic Sprague-Dawley rat model assessed as reduction in triglycerides level in serum at 160 mg/kg, IG administered once daily for 28 days relative to control; format: functional; design: scale not given: the % may be the effect or the level left; conditions: time 28 day
Rattus norvegicus [26] = experiment: as §1, with “glucose level” for “glucose”, “160” for “80”; format: functional; design: scale not given: the % may be the effect or the level left; conditions: time 673 hrs

IC50 [4] [µM]	logD at 24 h [6]	Ratio IC50 (Rattus norvegicus [11])	IC50 [12] [µM]	Structure (SMILES)	Activity [5] [%]	Activity (Brain [7]) [%]	Activity [8] [%]	Activity (Brain [9]) [%]	Activity [10] [%]	Activity [15] [%]	Activity (Brain [17]) [%]	Activity [18] [%]	Activity (Brain [20]) [%]	Activity (Brain [22]) [%]	other results
				C[C@H]1O[C@H](O[C@H]2[C@H](O)[C@@H](O)[C@@H](O[C@H]3[C@H](O)[C@@H](O)C(O)O[C@@H]3CO)O[C@@H]2CO)[C@H](O)[C@@H](O)[C@@H]1N[C@H]1C=C(CO)[C@@H](O)[C@H](O)[C@H]1O (some centres undefined) [ACARBOSE]											Activity (Rattus norvegicus [1]): 16.2%; Activity (Rattus norvegicus [2]): 22.35%
> 100	1.64	> 193	0.517	CC(C)=CCn1c(=O)oc2c(C(=O)/C=C/c3ccc(O)c(F)c3)cccc21	32.5	33.3	53.8	22.4	12.7						IC50 [3]: 52.1 µM
				CN(C)C(=N)NC(=N)N [METFORMIN]											Activity (Rattus norvegicus [13]): 38.5%
7.48	0.98	39.7	0.149	CC(C)=CCn1c(=O)oc2c(C(=O)/C=C/c3ccc(O)c(O)c3)cccc21	96	97	98	90.7	93	41.2	65.8	90.9	35	52	Activity (Rattus norvegicus [14]): 32.8%; Activity (HEK-293T): Non-Toxic; Activity (Rattus norvegicus [16]): 43.83%; Activity [19]: 47.2%; Activity (Rattus norvegicus [21]): Active; Activity (Rattus norvegicus [23]): 50.7%; Activity (Rattus norvegicus [24]): 20.7%; Activity (Rattus norvegicus [25]): 64.3%; Activity (Rattus norvegicus [26]): 21.16%
				Cc1c(C)c2c(c(C)c1O)CCC(C)(C(=O)O)O2 (centres undefined)		79.2		47.5	86.3	8.63	31.9	46.7	3.39	15.5	

Source: ChEMBL document CHEMBL5143721, “Novel Hydroxychalcone-Based Dual Inhibitors of Aldose Reductase and α-Glucosidase as Potential Therapeutic Agents against Diabetes Mellitus and Its Complications” (J Med Chem, 2022)
